From US20230233569A1 (Revolution Medicines, Inc., priority 2020, published 2023)
Like-named read-outs stand apart in the source and are kept apart here.

Tests used:
NRAS Q61K = NRAS Q61K (Homo sapiens, UniProt P01111+P62937, Q61K); assay: Disruption of BRAF RBD interaction with Ras (FRET / MOA assay, with Cyclophilin A); type: biochemical; settings: NRAS Q61K; read-out: NRAS Q61K FRET data IC50
Method in brief: (§1)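 TR-FRET in 25 mM HEPES pH 7.3, 100 mM NaCl, 5 mM MgCl2, 0.1% BSA: 25 μM Cyclophilin A, 12.5 nM His6-Ras-GMPPNP, 50 nM GST-BRAF RBD with compound (10-point 3-fold series from 30 μM), 3 h at 25° C. Anti-His Eu/anti-GST APC added, 1.5 h more; IC50 from decreased FRET ratio versus DMSO.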

NRAS Q61R = NRAS Q61R (Homo sapiens, UniProt P01111+P62937, Q61R); assay: as above; type: biochemical; settings: NRAS Q61R; read-out: NRAS Q61R FRET data IC50
NRAS Q61R, sequence (P01111 whole entry Q61R): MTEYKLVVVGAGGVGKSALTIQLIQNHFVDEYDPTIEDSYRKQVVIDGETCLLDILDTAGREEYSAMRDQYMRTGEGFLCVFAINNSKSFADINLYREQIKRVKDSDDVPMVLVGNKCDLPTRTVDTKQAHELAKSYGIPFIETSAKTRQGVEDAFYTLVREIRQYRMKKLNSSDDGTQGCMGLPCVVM
NRAS Q61R, sequence (P62937 whole entry): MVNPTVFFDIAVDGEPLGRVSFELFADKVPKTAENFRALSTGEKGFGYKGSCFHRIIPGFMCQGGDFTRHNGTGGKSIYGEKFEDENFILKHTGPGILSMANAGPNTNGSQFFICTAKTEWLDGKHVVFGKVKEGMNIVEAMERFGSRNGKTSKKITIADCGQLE
Method in brief: as §1

KRAS Q61H = KRAS Q61H (Homo sapiens, UniProt P01116+P62937, Q61H); assay: as above; type: biochemical; settings: KRAS Q61H; read-out: KRAS Q61H FRET data IC50
KRAS Q61H, sequence (P01116 1-169 isoform P01116-2 Q61H limits assumed): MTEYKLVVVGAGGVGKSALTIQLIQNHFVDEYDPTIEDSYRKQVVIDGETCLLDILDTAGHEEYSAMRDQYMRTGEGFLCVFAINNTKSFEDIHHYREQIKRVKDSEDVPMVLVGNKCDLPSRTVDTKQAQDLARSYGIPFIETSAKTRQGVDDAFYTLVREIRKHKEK
KRAS Q61H, sequence (P62937 whole entry): as the sequence (P62937 whole entry) above
Method in brief: as §1

NCI-H358 (K-Ras G12C) = assay: CellTiter-Glo cell viability assay, 5-day treatment; type: cell-based; settings: Homo sapiens
Method in brief: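 Compounds were dispensed directly onto seeded cells and incubated for 5 days, then plates were equilibrated to room temperature for about 30 minutes before luminescence reading. Signals were expressed as percent of the mean DMSO control and fitted with a four-parameter logistic curve.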

[1] = NCI-H358, H358, K-Ras G12C, read-out: Additional H358 Cell Viability assay data (K-Ras G12C, IC50)

NRAS Q61K, sequence (P01111 whole entry Q61K): as the sequence (P01111 whole entry Q61R) above, with R61K counted along it
NRAS Q61K, sequence (P62937 whole entry): as the sequence (P62937 whole entry) above

Row | SMILES | IC50 (NRAS Q61K) [nM] | IC50 (NRAS Q61R) [nM] | IC50 (KRAS Q61H) [nM] | IC50 (NCI-H358 (K-Ras G12C); NCI-H358, 120 h, 5-day treatment, read-out: H358 Cell Viability IC50) [nM] | IC50 (NCI-H358 (K-Ras G12C); [1]) [nM]
1 | CCn1c(-c2cccnc2[C@H](C)OC)c2c3cc(ccc31)-c1cc(O)cc(c1)C[C@H](NC(=O)[C@H](C(C)C)N(C)C(=O)[C@H]1CCN(C(=O)OC)C1)C(=O)N1CCC[C@H](N1)C(=O)OCC(C)(C)C2 (atropisomer, axis not shown) [Example A3] | 100 to 1000 | 100 to 1000 | 10 to 100 | 57 | –
2 | CCn1c(-c2cccnc2[C@H](C)OC)c2c3cc(ccc31)-c1csc(n1)C[C@H](NC(=O)[C@H](C(C)C)N(C)C(=O)N(C)C1CN(C(=O)/C=C/C(C)(C)O)C1)C(=O)N1CCC[C@H](N1)C(=O)OCC(C)(C)C2 (atropisomer, axis not shown) [Example A350] | 10 to 100 | 100 to 1000 | 10 to 100 | – | 100 to 1000
3 | CCn1c(-c2cccnc2[C@H](C)OC)c2c3cc(ccc31)-c1cccc(c1)C[C@H](NC(=O)[C@@H](COC1CN(C(=O)C#C[C@@H]3COCCN3C)C1)C(C)C)C(=O)N1CCC[C@H](N1)C(=O)OCC(C)(C)C2 (atropisomer, axis not shown) [Example A648] | > 10000 | > 10000 | > 10000 | – | 10 to 100
4 | C=CC(=O)N1CC[C@]2(C1)OCN(C(=O)N(C)[C@H](C(=O)N[C@H]1Cc3cccc(n3)-c3ccc4c(c3)c(c(-c3cccnc3[C@H](C)OC)n4CC)CC(C)(C)COC(=O)[C@@H]3CCCN(N3)C1=O)C(C)C)C2=O (atropisomer, axis not shown) [Example A652] | 1000 to 10000 | 1000 to 10000 | 1000 to 10000 | – | 100 to 1000
5 | C=CC(=O)N1CC[C@H](C(=O)N(C)[C@H](C(=O)N[C@H]2Cc3nsc(n3)-c3ccc4c(c3)c(c(-c3cccnc3[C@H](C)OC)n4CC)CC(C)(C)COC(=O)[C@@H]3CCCN(N3)C2=O)C(C)C)C1 (atropisomer, axis not shown) [Example A694] | 100 to 1000 | 1000 to 10000 | 100 to 1000 | – | 10 to 100
6 | CCn1c(-c2cccnc2[C@H](C)OC)c2c3cc(ccc31)-c1csc(n1)C[C@H](NC(=O)[C@H](COC1CN(C(=O)C#CC(C)(C)N(C)C)C1)OC)C(=O)N1CCC[C@H](N1)C(=O)OCC(C)(C)C2 (atropisomer, axis not shown) [Example A705] | 1000 to 10000 | > 10000 | 1000 to 10000 | – | < 10
7 | C=CC(=O)N1CC(OC[C@H](C(=O)N[C@H]2Cc3cc(F)cc(c3)-c3ccc4c(c3)c(c(-c3cccnc3[C@H](C)OC)n4CC)CC(C)(C)COC(=O)[C@@H]3CCCN(N3)C2=O)C(C)C)C1 (atropisomer, axis not shown) [Example A725] | 1000 to 10000 | 1000 to 10000 | 100 to 1000 | – | 10 to 100
8 | C=CC(=O)N1CC[C@@H](N(C)C(=O)N(C)[C@H](C(=O)N[C@H]2Cc3nc(cs3)-c3ccc4c(c3)c(c(-c3cccnc3[C@H](C)OC)n4CC(F)(F)F)CC(C)(C)COC(=O)[C@@H]3CCCN(N3)C2=O)C(C)C)C1 (atropisomer, axis not shown) [Example A728] | 100 to 1000 | 100 to 1000 | 100 to 1000 | – | 10 to 100
9 | C=CC(=O)N1CC[C@@]2(CCN2C(=O)N(C)[C@H](C(=O)N[C@H]2Cc3nc(cs3)-c3ccc4c(c3)c(c(-c3cccnc3[C@H](C)OC)n4CC)CC(C)(C)COC(=O)C3CCCN(N3)C2=O)N(C)C)C1 (single isomer, unassigned) [Example A661] | 10 to 100 | 100 to 1000 | 10 to 100 | – | < 10
10 | C=CC(=O)N1CC[C@H](C(=O)N(C)[C@H](C(=O)N[C@H]2Cc3cc(O)cc(c3)-c3ccc4c(c3)c(c(-c3cccnc3)n4C3CC3)CC(C)(C)COC(=O)[C@@H]3CCCN(N3)C2=O)C(C)C)C1 [Example A160] | > 10000 | > 10000 | 1000 to 10000 | – | 100 to 1000
11 | C=CC(=O)N1CC[C@H](C(=O)N(C)[C@H](C(=O)N[C@H]2Cc3cc(O)cc(c3)-c3ccc4c(c3)c(c(-c3cc(C)cnc3[C@H](C)OC)n4CC)CC(C)(C)COC(=O)[C@@H]3CCCN(N3)C2=O)C(C)C)C1 [Example A167] | 100 to 1000 | 100 to 1000 | 10 to 100 | – | 10 to 100
12 | CC#CC(=O)N1CC[C@H](C(=O)N(C)[C@H](C(=O)N[C@H]2Cc3nc(cs3)-c3ccc4c(c3)c(c(-c3cccnc3[C@H](C)OC)n4CC)CC(C)(C)COC(=O)[C@@H]3CCCN(N3)C2=O)C(C)C)C1 [Example A168] | 1000 to 10000 | 1000 to 10000 | 1000 to 10000 | – | 10 to 100
13 | C=CS(=O)(=O)N1CC[C@H](C(=O)N(C)[C@H](C(=O)N[C@H]2Cc3nc(cs3)-c3ccc4c(c3)c(c(-c3cncnc3)n4CC)CC(C)(C)COC(=O)[C@@H]3CCCN(N3)C2=O)C(C)C)C1 [Example A170] | > 10000 | > 10000 | > 10000 | – | 100 to 1000
14 | C=CC(=O)N1CC[C@H](C(=O)N(C)[C@H](C(=O)N[C@H]2Cc3cc(O)cc(c3)-c3cnc4c(c3)c(c(-c3ccccc3CCOC)n4CC)CC(C)(C)COC(=O)[C@@H]3CCCN(N3)C2=O)C(C)C)C1 [Example A210] | 1000 to 10000 | > 10000 | 1000 to 10000 | – | –
15 | C=CC(=O)N1CC[C@H](C(=O)N(C)[C@H](C(=O)N[C@H]2Cc3cc(O)cc(c3)-c3ccc4c(c3)c(c(-c3ccnc5c3[C@@H](OC)CC5)n4CC)CC(C)(C)COC(=O)[C@@H]3CCCN(N3)C2=O)C(C)C)C1 [Example A275] | 100 to 1000 | 100 to 1000 | 10 to 100 | – | < 10
16 | C=CC(=O)N1CC[C@@H](N(C)C(=O)N(C)[C@H](C(=O)N[C@H]2Cc3nc(cs3)-c3ccc4c(c3)c(c(-c3cccnc3[C@H](C)OC)n4CC)CC(C)(C)COC(=O)[C@@H]3CCCN(N3)C2=O)C(C)C)C1 [Example A349] | 10 to 100 | 100 to 1000 | 10 to 100 | – | 10 to 100
17 | CCn1c(-c2cccnc2[C@H](C)OC)c2c3cc(ccc31)-c1csc(n1)C[C@H](NC(=O)[C@H](C(C)C)N(C)C(=O)N1CC(N(C)C(=O)C#CC(C)(C)N3CCC3)C1)C(=O)N1CCC[C@H](N1)C(=O)OCC(C)(C)C2 [Example A379] | 100 to 1000 | 100 to 1000 | 10 to 100 | – | < 10
18 | C=CC(=O)N(C)C1CCN(C(=O)N(C)[C@H](C(=O)N[C@H]2Cc3nc(cs3)-c3ccc4c(c3)c(c(-c3cccnc3[C@H](C)OC)n4CC)CC(C)(C)COC(=O)[C@@H]3CCCN(N3)C2=O)C(C)C)C1 (stereo partly shown) [Example A384] | 10 to 100 | 100 to 1000 | 10 to 100 | – | < 10
19 | CCn1c(-c2cccnc2[C@H](C)OC)c2c3cc(ccc31)N1CCO[C@@](C)(CC(NC(=O)[C@H](C(C)C)N(C)C(=O)C3(F)CCN(C(=O)C#CC(C)(C)N(C)C)CC3)C(=O)N3CCC[C@H](N3)C(=O)OCC(C)(C)C2)C1 (stereo partly shown) [Example A550] | 1000 to 10000 | 1000 to 10000 | 1000 to 10000 | – | < 10
20 | C=CC(=O)N1CCO[C@H]2CN(C(=O)N(C)[C@H](C(=O)N[C@H]3CN4CCC=C(C4)c4ccc5c(c4)c(c(-c4cccnc4[C@H](C)OC)n5CC)CC(C)(C)COC(=O)[C@@H]4CCCN(N4)C3=O)C(C)C)C[C@H]21 [Example A552] | 1000 to 10000 | 1000 to 10000 | 100 to 1000 | – | < 10
21 | CO[C@@H](COC1CN(C(=O)C#CC(C)(C)N(C)C)C1)C(=O)N[C@H]1Cc2cccc(c2)-c2ccc3c(c2)c(c(-c2cccnc2[C@H](C)OC)n3CC(F)(F)F)CC(C)(C)COC(=O)[C@@H]2CCCN(N2)C1=O [Example A556] | > 10000 | > 10000 | – | – | < 10
22 | CCn1c(-c2cccnc2[C@H](C)OC)c2c3cc(ccc31)N1CCO[C@@H](C[C@H](NC(=O)[C@H](C(C)C)N(C)C(=O)[C@@]3(F)CCN(C(=O)C#CC(C)(C)N4CCC4)C3)C(=O)N3CCC[C@H](N3)C(=O)OCC(C)(C)C2)C1 [Example A726] | > 10000 | > 10000 | – | – | < 10
